The record followed here is article PMC3945162 (Psychopharmacology, 2013).

Read-outs that look alike come from different tables or passages of the source. Some results are limits rather than exact numbers.

In one data set the test system is Male Swiss–Webster mice. In words: Locomotor activity. The format is in vivo, mouse. To be noted: mice, i.p.
Data set [1] concerns rats trained to discriminate DMT (5 mg/kg) from saline. The format is in vivo, rat. The following applies: DMT-trained rats; 15 min pretreatment.
Data set [2] has as its system rats trained to discriminate DOM (0.5 mg/kg) from saline. Format: in vivo, rat. To be noted: 15 min pretreatment.
Data set [3] relates to rats trained to discriminate LSD (0.1 mg/kg) from saline. Format: in vivo, rat. To be noted: LSD-trained rats, 15 min pretreatment.
Data set [4] has as its system rats trained to discriminate MDMA (1.5 mg/kg) from saline. The format is in vivo, rat. To be noted: MDMA-trained rats, 15 min pretreatment.
The test system of data set [5] is rats trained to discriminate METH (1 mg/kg) from saline. The format is in vivo, rat. The following applies: METH-trained rats; 15 min pretreatment.
In another data set the test system is Male Sprague-Dawley rats. Briefly: Adverse effects observed during drug discrimination test sessions. The format is in vivo, rat.
Data set [6] deals with T1, human 5-HT1A receptor (Homo sapiens, UniProt P08908).
T1 sequence (P08908 1-422): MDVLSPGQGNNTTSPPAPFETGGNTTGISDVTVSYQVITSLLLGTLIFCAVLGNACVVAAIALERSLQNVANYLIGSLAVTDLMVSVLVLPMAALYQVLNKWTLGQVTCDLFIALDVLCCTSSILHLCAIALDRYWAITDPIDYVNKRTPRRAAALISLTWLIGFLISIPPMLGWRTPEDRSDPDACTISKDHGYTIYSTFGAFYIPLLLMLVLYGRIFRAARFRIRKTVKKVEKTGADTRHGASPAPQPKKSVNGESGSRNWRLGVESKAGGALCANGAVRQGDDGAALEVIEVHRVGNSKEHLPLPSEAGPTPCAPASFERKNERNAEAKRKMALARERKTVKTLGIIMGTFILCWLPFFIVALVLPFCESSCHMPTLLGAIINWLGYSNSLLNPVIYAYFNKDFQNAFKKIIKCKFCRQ
Briefly: [35S]GTPγS binding functional assay, HEK-5-HT1A. Format: biochemical. The following applies: for Emax: read-out: 5-HT1A Function [35S]GTPγS Binding % maximal effect. Background: GTPγS is a poorly hydrolysed GTP analogue; its binding reports G protein activation.

The target in data set [7] is T2, human 5-HT2A receptor (Homo sapiens, UniProt P28223). In words: [125I]DOI binding, HEK-5-HT2A cells.
T2 sequence (P28223 whole entry): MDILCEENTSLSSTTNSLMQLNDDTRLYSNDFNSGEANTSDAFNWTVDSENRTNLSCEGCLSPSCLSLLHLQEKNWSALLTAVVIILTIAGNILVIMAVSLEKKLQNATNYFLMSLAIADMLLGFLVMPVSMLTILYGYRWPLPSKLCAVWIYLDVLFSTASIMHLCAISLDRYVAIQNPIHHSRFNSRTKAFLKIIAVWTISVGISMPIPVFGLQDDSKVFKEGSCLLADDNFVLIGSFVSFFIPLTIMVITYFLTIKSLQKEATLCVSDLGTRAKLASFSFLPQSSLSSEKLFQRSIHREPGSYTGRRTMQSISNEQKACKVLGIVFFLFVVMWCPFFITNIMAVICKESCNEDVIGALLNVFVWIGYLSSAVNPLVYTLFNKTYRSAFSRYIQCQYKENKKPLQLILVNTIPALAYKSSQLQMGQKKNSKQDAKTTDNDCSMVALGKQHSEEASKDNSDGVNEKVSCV
Data set [8] has as its target T2, human 5-HT2A receptor. In words: [3H]AA release from HEK-5-HT2A cells. Format: cell-based. The following applies: for Emax: read-out: 5-HT2A Function [3H]AA release % maximal effect.
The target of data set [9] is T2, human 5-HT2A receptor. Briefly: IP-1 formation, HEK-5-HT2A cells. The following applies: for Emax: read-out: 5-HT2A Function IP-1 formation % maximal effect. Format: cell-based.
Data set [10] addresses T3, hDAT (Homo sapiens, UniProt Q01959). In words: [125I]RTI-55 binding, HEK-hDAT cells.
For data set [11], the target named is T3, hDAT. In words: [3H]Dopamine uptake, HEK-hDAT cells. Format: cell-based.
Data set [12] deals with T3, hDAT. In words: [3H]Dopamine release, HEK-hDAT cells. The format is cell-based. The following applies: HEK-hDAT cells.
For data set [13], the target named is T4, hSERT (Homo sapiens, UniProt P31645). In words: [125I]RTI-55 binding, HEK-hSERT cells.
T4 sequence (P31645 whole entry): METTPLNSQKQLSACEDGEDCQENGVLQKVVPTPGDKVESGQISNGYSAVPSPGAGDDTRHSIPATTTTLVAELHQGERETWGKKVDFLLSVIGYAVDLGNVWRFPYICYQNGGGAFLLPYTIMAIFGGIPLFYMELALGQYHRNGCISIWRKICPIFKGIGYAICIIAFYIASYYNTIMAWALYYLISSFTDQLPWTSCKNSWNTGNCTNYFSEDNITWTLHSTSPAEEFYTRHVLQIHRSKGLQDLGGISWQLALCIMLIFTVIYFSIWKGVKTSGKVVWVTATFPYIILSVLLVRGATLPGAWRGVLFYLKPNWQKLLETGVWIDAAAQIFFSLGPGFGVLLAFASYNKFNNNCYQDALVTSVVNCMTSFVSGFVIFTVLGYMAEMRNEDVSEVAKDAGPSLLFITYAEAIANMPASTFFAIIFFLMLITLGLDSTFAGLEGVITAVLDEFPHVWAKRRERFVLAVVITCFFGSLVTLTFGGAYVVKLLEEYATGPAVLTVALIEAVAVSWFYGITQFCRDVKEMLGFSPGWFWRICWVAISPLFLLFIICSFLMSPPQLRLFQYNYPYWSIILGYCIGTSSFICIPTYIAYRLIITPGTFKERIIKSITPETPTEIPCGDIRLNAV
Data set [14] addresses T4, hSERT. Briefly: [3H]Serotonin uptake, HEK-hSERT cells. Format: cell-based.
Data set [15] has as its target T4, hSERT. In words: [3H]Serotonin release, HEK-hSERT cells. The format is cell-based.
The target of data set [16] is T5, hNET (Homo sapiens, UniProt P23975). Briefly: biochemical. Format: binding.
T5 sequence (P23975 whole entry): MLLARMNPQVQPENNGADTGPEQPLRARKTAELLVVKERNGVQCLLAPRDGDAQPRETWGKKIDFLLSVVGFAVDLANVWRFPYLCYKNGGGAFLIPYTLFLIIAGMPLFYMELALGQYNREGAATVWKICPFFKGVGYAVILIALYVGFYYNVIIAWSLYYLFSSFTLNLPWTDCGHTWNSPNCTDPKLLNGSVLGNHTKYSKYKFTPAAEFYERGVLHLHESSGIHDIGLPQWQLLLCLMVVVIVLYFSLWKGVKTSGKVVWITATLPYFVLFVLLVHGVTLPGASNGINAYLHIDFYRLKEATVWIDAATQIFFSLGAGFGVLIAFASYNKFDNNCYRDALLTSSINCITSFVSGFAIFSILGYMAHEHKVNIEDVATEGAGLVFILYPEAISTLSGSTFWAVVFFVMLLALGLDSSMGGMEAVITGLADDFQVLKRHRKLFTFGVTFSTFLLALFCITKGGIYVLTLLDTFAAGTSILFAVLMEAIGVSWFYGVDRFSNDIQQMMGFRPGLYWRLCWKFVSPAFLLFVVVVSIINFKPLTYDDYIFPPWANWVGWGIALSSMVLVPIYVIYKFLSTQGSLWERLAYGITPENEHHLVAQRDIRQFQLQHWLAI
In data set [17] the target is T5, hNET. Briefly: cell-based.
Data set [18] concerns the target T5, hNET. In words: cell-based. This is another data set of the same source.
The target of data set [19] is T1, human 5-HT1A receptor. Briefly: [3H]8-OH-DPAT binding, HEK-5-HT1A.
A further data set addresses T6, human 5-HT2C receptor (Homo sapiens, UniProt P28335).
T6 sequence (P28335 33-458): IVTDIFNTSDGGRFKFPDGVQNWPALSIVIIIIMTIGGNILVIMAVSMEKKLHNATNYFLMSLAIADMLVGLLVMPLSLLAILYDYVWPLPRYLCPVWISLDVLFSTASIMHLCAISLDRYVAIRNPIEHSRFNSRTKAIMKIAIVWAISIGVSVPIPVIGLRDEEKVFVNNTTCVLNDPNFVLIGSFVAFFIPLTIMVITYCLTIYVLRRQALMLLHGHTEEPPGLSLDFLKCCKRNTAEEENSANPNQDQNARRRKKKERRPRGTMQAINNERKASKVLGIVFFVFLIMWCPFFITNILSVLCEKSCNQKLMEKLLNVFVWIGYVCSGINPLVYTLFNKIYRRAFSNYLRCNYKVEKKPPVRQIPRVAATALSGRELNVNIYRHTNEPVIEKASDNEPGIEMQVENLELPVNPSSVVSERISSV
In words: cell-based. The following applies: read-out: 5-HT2C Function IP-formation % maximal effect.

The mark [20] stands for this setting: normalized to the maximal effect of serotonin.

T3 sequence (Q01959 whole entry): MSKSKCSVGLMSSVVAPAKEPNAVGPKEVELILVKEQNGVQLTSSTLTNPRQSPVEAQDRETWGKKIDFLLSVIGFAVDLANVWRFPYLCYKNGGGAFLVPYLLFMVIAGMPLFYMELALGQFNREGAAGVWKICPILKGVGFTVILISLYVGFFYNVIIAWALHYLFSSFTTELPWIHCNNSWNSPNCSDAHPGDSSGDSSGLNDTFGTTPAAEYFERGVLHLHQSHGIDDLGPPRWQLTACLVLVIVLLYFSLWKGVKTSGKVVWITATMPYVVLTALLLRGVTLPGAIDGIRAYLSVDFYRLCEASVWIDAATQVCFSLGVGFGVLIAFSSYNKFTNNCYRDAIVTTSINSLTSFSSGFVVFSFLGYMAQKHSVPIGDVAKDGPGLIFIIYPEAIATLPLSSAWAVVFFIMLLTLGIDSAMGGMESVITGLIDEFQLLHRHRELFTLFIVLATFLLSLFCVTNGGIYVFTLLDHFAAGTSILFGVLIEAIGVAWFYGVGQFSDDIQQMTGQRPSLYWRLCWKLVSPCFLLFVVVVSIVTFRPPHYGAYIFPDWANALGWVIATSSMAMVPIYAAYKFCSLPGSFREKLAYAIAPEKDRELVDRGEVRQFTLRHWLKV

What is called Ki is a dissociation constant, usually derived from enzyme kinetics or from competition with a known ligand. A word on the EC50: it is the concentration at which the effect is half-maximal. Read a low EC50 as greater potency. What is called IC50 is the midpoint of a concentration-inhibition curve. With `CCc1cc(OC)c(CCN)cc1OC` [2C-E, 2,5-dimethoxy-4-ethylphenethylamine], the “Duration of depressant effects” value with Male Swiss–Webster mice is 50 to 70 min. For the same compound, in the data set on Male Swiss–Webster mice, the “Duration of stimulant effects” value lay in the range of 70 to 100 min. Besides, the “Onset of depressant effects (within, after injection)” value in the data set on Male Swiss–Webster mice was no more than 10 min. Besides, in the data set with Male Swiss–Webster mice, the “Onset of stimulant effects (within, after injection)” value is no more than 50 min. Also, the “Rate of responding at dose of maximum DAR” value in [1] came to 0.466±0.166 resp/s; in data set [2] it was 0.576±0.087 resp/s; in [3], 0.413±0.061 resp/s; in data set [4] it was 0.053±0.036 resp/s; in [5], 0.228±0.024 resp/s. Also, the “Maximum %DAR (drug-appropriate responding)” value turned out to be 97±2 % in [2] (i.p., at dose of maximum DAR); 97±3 % in data set [3] (i.p., at dose of maximum DAR); 100±0 % in data set [4] (i.p., at dose of maximum DAR). The Adverse effect observed result in the data set on Male Sprague-Dawley rats (10 mg/kg, MDMA-trained rats) is reported as “Loss of muscle tone”. In addition, the Effect on responding entry in the data set on Male Sprague-Dawley rats (25 mg/kg) is “completely suppressed responding”. The results for the Emax on human 5-HT1A receptor [6], at human 5-HT2A receptor [8] and at human 5-HT2A receptor [9] were less than 20%, 65 ± 11% and 125 ± 13%, respectively. Moreover, the Ki at human 5-HT2A receptor [7] was 0.0045 ± 0.00071 µM; on hDAT [10] it was greater than 10 µM; at hSERT [13] it was greater than 10 µM; on hNET [16], greater than 7.6 µM. The EC50 on human 5-HT2A receptor [8] stood at 0.0071 ± 0.0033 µM; on human 5-HT2A receptor [9] it was 0.084 ± 0.016 µM. In addition, the IC50 against hDAT [11] was greater than 10 µM; at hSERT [14] it was greater than 7.5 µM; against hNET [17], greater than 9.8 µM. At hDAT [12], the “[3H]Dopamine release % METH maximal effect” value is “ND Minimal”. The “[3H]Serotonin release % PCA maximal effect” value at hSERT [15] was “ND Minimal”. Besides, the “[3H]NE release % METH maximal effect” value on hNET [18] is reported as “ND Minimal”.

Regarding `CCSc1cc(OC)c(CCN)cc1OC` [2C-T-2, 2,5-dimethoxy-4-ethylthiophenethylamine], in the data set with Male Swiss–Webster mice, the “Duration of depressant effects” value was in the range of 30 to 50 min. For the same compound, the “Rate of responding at dose of maximum DAR” value was found to be 0.170±0.106 resp/s in data set [1], 0.208±0.117 resp/s in data set [3], 0.448±0.130 resp/s in [4] and 0.748±0.109 resp/s in data set [5]. The “Decreased muscle tone (rats affected/tested)” value with Male Sprague-Dawley rats (5 mg/kg, LSD-trained rats) was 3/6. In addition, the Adverse effects observed result in the data set with Male Sprague-Dawley rats (10 mg/kg) is “hind limb paralysis, salivation and loss of muscle tone”. In addition, the “Rats that failed to complete the first fixed ratio” value with Male Sprague-Dawley rats (highest dose tested, in each of DMT-, LSD-, MDMA- and METH-trained groups) is 5/6. The Ki was 1.74 ± 0.66 µM at human 5-HT1A receptor [19]; 0.0125 ± 0.0044 µM on human 5-HT2A receptor [7]; greater than 10 µM on hDAT [10]; greater than 9.4 µM on hSERT [13]; greater than 10 µM at hNET [16]. The EC50 came to 3 ± 1.3 µM at human 5-HT1A receptor [6], 0.0023 ± 0.00069 µM on human 5-HT2A receptor [8] and 0.0079 ± 0.002 µM at human 5-HT2A receptor [9]. Further, the Emax on human 5-HT1A receptor [6] was found to be 76 ± 10%; at human 5-HT2A receptor [8], 107 ± 6.3%; on human 5-HT2A receptor [9] it was 87.4 ± 6.5%. Also, the IC50 against hDAT [11] is greater than 10 µM; at hSERT [14] it was greater than 8.6 µM; on hNET [17], greater than 7.2 µM. Also, the “[3H]Dopamine release % METH maximal effect” value at hDAT [12] is given as “ND Minimal”. In addition, the “[3H]Serotonin release % PCA maximal effect” value on hSERT [15] is given as “ND Minimal”. Also, the “[3H]NE release % METH maximal effect” value at hNET [18] is “ND Minimal”.

With `COC(=O)[C@H]1[C@@H](OC(=O)c2ccccc2)C[C@@H]2CC[C@H]1N2C` [Cocaine, reference compound], the “[3H]Dopamine release % METH maximal effect” value on hDAT [12] is “ND Minimal”. For the same compound, the “[3H]Serotonin release % PCA maximal effect” value at hSERT [15] is “ND Minimal”.

For the compound `CN(C)CCc1c[nH]c2ccccc12` [DMT, N,N,-dimethyltryptamine, reference compound], the Emax was found to be 100 ± 5.2% on human 5-HT1A receptor [6], 105 ± 3% at human 5-HT2A receptor [8] and 39 ± 4.6% on human 5-HT2A receptor [9]. The compound also yielded a Ki on human 5-HT2A receptor [7] of 0.201 ± 0.048 µM. The figures for the EC50 on human 5-HT2A receptor [8] and at human 5-HT2A receptor [9] were 0.26 ± 0.12 µM and 0.269 ± 0.061 µM, respectively.

For `COc1cc(CC(C)N)c(OC)cc1C` (stereo not drawn) [DOM, 2,5-dimethoxy-4-methylamphetamine, reference compound], the Ki at human 5-HT1A receptor [19] came to 11.9 ± 5.6 µM; at human 5-HT2A receptor [7] it was 0.0081 ± 0.0022 µM. The EC50 on human 5-HT1A receptor [6] was found to be 13.9 ± 1.5 µM; at human 5-HT2A receptor [9] it was 0.0312 ± 0.0096 µM. For the same compound, the figures for the Emax on human 5-HT1A receptor [6] and on human 5-HT2A receptor [9] were 53.8 ± 9.7% and 106 ± 11%, respectively.

On to `CCN(CC)C(=O)[C@@H]1C=C2c3cccc4[nH]cc(c34)C[C@H]2N(C)C1` [LSD, lysergic acid diethylamide, reference compound], for which, on human 5-HT2A receptor [8] (setting [20]), the “5-HT2A Function [3H]AA release % maximal effect” value was 87.8 ± 3.4%. Further, the “5-HT2A Function IP-1 formation % maximal effect” value on human 5-HT2A receptor [9] (setting [20]) worked out at 80.3 ± 4.9%. The Ki is greater than 10 µM at hDAT [10] (read-out: hDAT [125I]RTI-55 binding Ki, HEK-hDAT cells, cells printed in μM); greater than 10 µM on hSERT [13] (read-out: hSERT [125I]RTI-55 binding Ki, HEK-hSERT cells, cells printed in μM); 5.6 ± 0.26 µM at hNET [16] (read-out: hNET [125I]RTI-55 binding Ki). Moreover, the IC50 at hDAT [11] (read-out: [3H]Dopamine uptake IC50, HEK-hDAT cells, cells printed in μM) was greater than 10 µM; at hSERT [14] (read-out: [3H]Serotonin uptake IC50, HEK-hSERT cells, cells printed in μM), greater than 10 µM; on hNET [17] (read-out: [3H]NE uptake IC50) it was greater than 10 µM.

As to `CNC(C)Cc1ccc2c(c1)OCO2` (stereo not drawn) [MDMA, 3,4-methylenedioxymethamphetamine, reference compound], the Ki on human 5-HT1A receptor [19] was 11.9 ± 1.2 µM; at human 5-HT2A receptor [7], 20.9 ± 4.6 µM. Besides, the EC50 on human 5-HT1A receptor [6] worked out at 36 ± 16 µM; at human 5-HT2A receptor [9] it was 5500 ± 2300 µM. In addition, the Emax at human 5-HT1A receptor [6] was 64.3 ± 9.4%; at human 5-HT2A receptor [9], 40.2 ± 7.1%; on human 5-HT2C receptor, 92.2 ± 8%.

On to `NCCc1c[nH]c2ccc(O)cc12` [Serotonin, reference compound], for which the “Average maximal stimulation of IP-1 formation” value on human 5-HT2A receptor [9] (HEK-5-HT2A cells) came to 565 ± 46 nM IP1.
